Converted amounts (≈) assume the structure as drawn. Marks after values point to notes of the source that are not given here. Starred links: 1 amine or outer side, 2 acyl side, 3 side chain; linkers in the order of their positions; H or OH if unused. Positions of bridges follow the written chain, without caps; N, C: chain ends. Non-standard residues stand in square brackets, D forms with d. Residues, ends and D or L forms follow the SMILES beside them. *: point of attachment. Orn(4R-OH,5R-OH) = O=C([C@H](C[C@@H](O)[C@@H](O)N[*:3])N[*:1])[*:2]; Tetradecanoyl(10R,12S-Me2) = CC[C@H](C)C[C@H](C)CCCCCCCCC(=O)*; hTyr(3S-OH,4S-OH) = N[C@H](C(=O)O)[C@H](O)[C@@H](O)c1ccc(O)cc1; Gln(3R-OH) = NC(=O)C[C@@H](O)[C@H](N)C(=O)O; Pro(3S-OH) = O=C(O)[C@H]1NCC[C@@H]1O; Hyp = O=C(O)[C@@H]1C[C@@H](O)CN1
Key:
C. albicans R303 = assay: Mouse candidiasis infection model, C. albicans density in kidneys; assay type: in vivo, female CD-1 mice; conditions: for Difference from 24-hr control / Mean log10 CFU/kidneys (±SD) / Mean log10 CFU/kidneys (±SEM) / Difference from 24-h control: kidneys at 24 hr
Description: The objective of these studies was to evaluate the efficacy of test compounds in the mouse candidiasis infection model.
The strain, C. albicans R303 was transferred from frozen storage onto Sabauroud dextrose agar (SDA) plates and grown for ˜24 hr at 35° C. The inoculum was prepared by transferring colonies from the plate to phosphate buffered saline (PBS) and the concentration adjusted to 10^6 CFU/mL with the aid of a spectrophotometer. The stock was diluted 1:9 to prepare the inoculum. Prior to each run the concentration was verified using the dilution plate count method.
The female CD-1 mice used in this study were obtained from Charles River Laboratories, Portage, MI. The animals were approximately seven-weeks-old at the start of the study and weighed about 16-26 g.
In one approach, mice were made neutropenic with IP injections of cyclophosphamide (150 mg/kg in 10 mL/kg) at 4 and 1 day before inoculation. Each animal was inoculated with the appropriate concentration by injecting 0.1 mL of inoculum into a tail vein. The test compounds were administered IP at 2 hr after infection.
The kidneys were collected from four mice in control group 1 (untreated) at 2 hr after infection, and from the remaining mice in the study at 24 hr after infection. Kidneys were removed aseptically from each mouse and were combined in a sterile tube. An aliquot (2 mL) of sterile PBS was added to each tube and the contents homogenized with a tissue homogenizer (Polytron 3100). Serial dilutions of the tissue homogenates were conducted and 0.1 mL aliquots were spread on SDA plates and the plates incubated at 35° C. overnight. The CFU/kidneys were determined from colony counts. Data were analyzed using one-way ANOVA with the Tukey-Kramer Multiple Comparisons Test (GraphPad InStat version 3.06, GraphPad Software, San Diego, Calif.).
Treatments were administered at 2 hr after infection with 2.1×10^5 CFU/mL of the organism. Data are the means of four mice.
Treatments were administered at 2 hr after infection with 6.4×10^5 CFU/mL of the organism. Data are the means of four mice.
Treatments were administered at 2 hr after infection with 3.8×10^5 CFU/mL of the organism. Data are the means of four mice.
Treatments were administered at 2 hr after infection with 3.8×10^5 CFU/rnL of the organism. Data are the means of four mice.

[1] = test system: C. albicans 104 ATCC 90028; assay: MIC by broth microdilution against C. albicans; assay type: cell-based; conditions: 48 hr
Description: (§1) MIC values (μg/mL) of echinocandin class compounds of the invention against various Candida and Aspergillus species were obtained as follows. Test organisms were obtained from the American Type Culture Collection (Manassas, Va.). The isolates were maintained at −80 ° C., then thawed and sub-cultured one day prior to testing (seven days for Aspergillus strains).
(§2) The mouse serum was heat-inactivated for 30 minutes at 56° C., and filtered through a 0.2 μm low protein binding filter unit prior to use.
(§3) MIC values were determined using broth microdilution. The wells of the daughter plates ultimately contained 180 μL of RPMI-1640 medium with and without mouse serum, 10 μL of drug solution, and 10 μL of yeast or fungal inoculum.
(§4) Prior to susceptibility testing, fungal isolates were removed from frozen storage, thawed at room temperature, and subcultured to Potato Dextrose Agar. The Candida strains were incubated overnight at 35° C. and the Aspergillus strains for 7 days at 25° C. Yeast colonies were inoculated into sterile saline and adjusted to the turbidity of a 0.5 McFarland standard. Inoculums from Aspergillus strains were prepared by washing the surface of an agar slant with 1 mL of sterile saline containing 0.05% of Tween 20. The resulting colloidial suspensions were adjusted to an optical density of 0.09 to 0.11 at λ 625 nm.
(§5) Both the yeast and filamentous fungus suspensions were further diluted 1:100 in RPMI-1640 medium and dispensed into sterile reservoirs and used to inoculate the daughter plates. 10 μL of standardized inoculum was delivered into each well. This yielded a final cell concentration in the daughter plates of approximately 2.5×10^3 colony-forming units/mL. Plates were incubated at 35° C. for approximately 48 hr.
(§6) Following incubation, microplates were viewed from the bottom using a plate viewer.

A. flavus 626 ATCC 64025 = assay: MIC by broth microdilution against A. flavus; assay type: cell-based; conditions: 48 hr, growth reduction of 50%
Description: as §1, §2, §3, §4, §5, §6

[2] = test system: C. parapsilosis 630 ATCC 90018; assay: MIC by broth microdilution against C. parapsilosis; assay type: cell-based; conditions: 48 hr
Description: as §1, §2, §3, §4, §5, §6

[3] = Second run, 5 mg/kg IP 2 hr after infection
[4] = Third run, 0.5 mg/kg IP 2 hr after infection
[5] = Third run, 1.5 mg/kg IP 2 hr after infection
[6] = Third run, 4.5 mg/kg IP 2 hr after infection
[7] = Fourth run, 0.5 mg/kg IP 2 hr after infection
[8] = Fourth run, 1.5 mg/kg IP 2 hr after infection
[9] = Fourth run, 4.5 mg/kg IP 2 hr after infection

SMILES: CCCCCOc1ccc(-c2ccc(-c3ccc(C(=O)NC4CC(O)C(OCCOCCOC)NC(=O)C5C(O)C(C)CN5C(=O)C(C(C)O)NC(=O)C(C(O)C(O)c5ccc(O)cc5)NC(=O)C5CC(O)CN5C(=O)C(C(C)O)NC4=O)cc3)cc2)cc1 (stereo not shown) [Compound 19]
- Difference from 24-hr control (C. albicans R303; [3]): −3.49*** log10 CFU/kidneys
- Mean log10 CFU/kidneys (±SD) (C. albicans R303; [3]): 1.71 ± 0.35 log10 CFU/kidneys
- Difference from 24-hr control (C. albicans R303; [4]): −0.03 ns log10 CFU/kidneys
- Mean log10 CFU/kidneys (±SEM) (C. albicans R303; [4]): 4.84 ± 0.26 log10 CFU/kidneys
- Difference from 24-hr control (C. albicans R303; [5]): −2.06*** log10 CFU/kidneys
- Mean log10 CFU/kidneys (±SEM) (C. albicans R303; [5]): 2.82 ± 0.10 log10 CFU/kidneys
- Difference from 24-hr control (C. albicans R303; [6]): −3.82*** log10 CFU/kidneys
- Mean log10 CFU/kidneys (±SEM) (C. albicans R303; [6]): 1.05 ± 0.36 log10 CFU/kidneys

SMILES: CCC(C)CC(C)CCCCCCCCC(=O)NC1CC(O)C(NCCOC)NC(=O)C2C(O)CCN2C(=O)C(C(O)CCN)NC(=O)C(C(O)C(O)c2ccc(O)cc2)NC(=O)C2CC(O)CN2C(=O)C(C(C)O)NC1=O (stereo not shown) [Compound 17]
- Effect on density of C. albicans in the kidneys (C. albicans R303; Fourth run, 0.5 mg/kg): not
- Difference from 24-h control (C. albicans R303; [7]): −0.87 ns log10 CFU/kidneys
- Mean log10 CFU/kidneys (±SEM) (C. albicans R303; [7]): 4.33 ± 0.14 log10 CFU/kidneys
- Difference from 24-h control (C. albicans R303; [8]): −2.09*** log10 CFU/kidneys
- Mean log10 CFU/kidneys (±SEM) (C. albicans R303; [8]): 3.11 ± 0.14 log10 CFU/kidneys
- Difference from 24-h control (C. albicans R303; [9]): −4.25*** log10 CFU/kidneys
- Mean log10 CFU/kidneys (±SEM) (C. albicans R303; [9]): 0.95 ± 0.55 log10 CFU/kidneys
- Effect on density of C. albicans in the kidneys (C. albicans R303; Fourth run, 4.5 and 1.5 mg/kg): significantly reduced the density

SMILES: CCC(C)CC(C)CCCCCCCCC(=O)NC1CC(O)C(NCCNC(=O)CCCCCCCOCCOCCOCCOCCOCCOCCOCCOC)NC(=O)C2C(O)CCN2C(=O)C(C(O)CCN)NC(=O)C(C(O)C(O)c2ccc(O)cc2)NC(=O)C2CC(O)CN2C(=O)C(C(C)O)NC1=O (stereo not shown) [Compound 3]
- MIC ([1]; 0% mouse serum): 2 µg/mL (≈ 1.28 µM)
- MIC ([1]; 50% mouse serum): >16 µg/mL
- MIC (A. flavus 626 ATCC 64025; 0% mouse serum): 2 µg/mL (≈ 1.28 µM)
- MIC (A. flavus 626 ATCC 64025; 50% mouse serum): 8 µg/mL (≈ 5.14 µM)
- MIC ([2]; 0% mouse serum): >16 µg/mL
- MIC ([2]; 50% mouse serum): >16 µg/mL

SMILES: CCCCCOc1ccc(-c2ccc(-c3ccc(C(=O)NC4CC(O)C(OCCOCCOCCOCCOCCOCCOCCOC)NC(=O)C5C(O)C(C)CN5C(=O)C(C(C)O)NC(=O)C(C(O)C(O)c5ccc(O)cc5)NC(=O)C5CC(O)CN5C(=O)C(C(C)O)NC4=O)cc3)cc2)cc1 (stereo not shown) [Compound 6]
- MIC ([1]; 0% mouse serum): 2 µg/mL (≈ 1.37 µM)
- MIC ([1]; 50% mouse serum): 8 µg/mL (≈ 5.47 µM)
- MIC (A. flavus 626 ATCC 64025; 0% mouse serum): 0.125 µg/mL (≈ 0.0855 µM)
- MIC (A. flavus 626 ATCC 64025; 50% mouse serum): 0.5 µg/mL (≈ 0.342 µM)
- MIC ([2]; 0% mouse serum): >16 µg/mL
- MIC ([2]; 50% mouse serum): >16 µg/mL

SMILES: CC[C@H](C)C[C@H](C)CCCCCCCCC(=O)N[C@H]1C[C@@H](O)[C@@H](O)NC(=O)[C@@H]2[C@@H](O)CCN2C(=O)[C@H]([C@H](O)CC(N)=O)NC(=O)[C@H]([C@H](O)[C@@H](O)c2ccc(O)cc2)NC(=O)[C@@H]2C[C@@H](O)CN2C(=O)[C@H]([C@@H](C)O)NC1=O [Pneumocandin B0, pneumocandin B0, reference compound] ({Tetradecanoyl(10R,12S-Me2)}-[Orn(4R-OH,5R-OH)]T[Hyp][hTyr(3S-OH,4S-OH)][Gln(3R-OH)][Pro(3S-OH)]; lactam 1-C)
- MIC ([1]; 0% mouse serum): 0.25 µg/mL (≈ 0.235 µM)
- MIC ([1]; 50% mouse serum): 4 µg/mL (≈ 3.76 µM)
- MIC (A. flavus 626 ATCC 64025; 0% mouse serum): 1 µg/mL (≈ 0.939 µM)
- MIC (A. flavus 626 ATCC 64025; 50% mouse serum): 0.25 µg/mL (≈ 0.235 µM)
- MIC ([2]; 0% mouse serum): 8 µg/mL (≈ 7.51 µM)
- MIC ([2]; 50% mouse serum): >16 µg/mL

SMILES: CCCCCOc1ccc(-c2ccc(-c3ccc(C(=O)NC4CC(O)C(OCCOCCO)NC(=O)C5C(O)C(C)CN5C(=O)C(C(C)O)NC(=O)C(C(O)C(O)c5ccc(O)cc5)NC(=O)C5CC(O)CN5C(=O)C(C(C)O)NC4=O)cc3)cc2)cc1 (stereo not shown) [Compound 21]
- Difference from 24-hr control (C. albicans R303; [4]): −1.53** log10 CFU/kidneys
- Mean log10 CFU/kidneys (±SEM) (C. albicans R303; [4]): 3.35 ± 0.08 log10 CFU/kidneys
- Difference from 24-hr control (C. albicans R303; [5]): −2.62*** log10 CFU/kidneys
- Mean log10 CFU/kidneys (±SEM) (C. albicans R303; [5]): 2.26 ± 0.12 log10 CFU/kidneys
- Difference from 24-hr control (C. albicans R303; [6]): −4.22*** log10 CFU/kidneys
- Mean log10 CFU/kidneys (±SEM) (C. albicans R303; [6]): 0.65 ± 0.38 log10 CFU/kidneys
- Effect on density of C. albicans in the kidneys compared to the infected controls (C. albicans R303; Third run, all dose levels (0.5, 1.5, 4.5 mg/kg)): significantly reduced the density

SMILES: CCC(C)CC(C)CCCCCCCCC(=O)NC1CC(O)C(NCCNCCOC)NC(=O)C2C(O)CCN2C(=O)C(C(O)CCN)NC(=O)C(C(O)C(O)c2ccc(O)cc2)NC(=O)C2CC(O)CN2C(=O)C(C(C)O)NC1=O (stereo not shown) [Compound 13]
- Difference from 24-hr control (C. albicans R303; [3]): −4.55*** log10 CFU/kidneys
- Mean log10 CFU/kidneys (±SD) (C. albicans R303; [3]): 0.65 ± 0.75 log10 CFU/kidneys

Reference: patent US20120190613A1, “ECHINOCANDIN DERIVATIVES” (priority 2009, published 2012)
